Measured values from patent US11970493B2, “Autotaxin inhibitor compounds” (ILDONG PHARMACEUTICAL CO., LTD., priority 2020, dated 2024).

Columns and labels:
[1] = test system: LPA 18:2 level in rat plasma; test: In vitro LPA assay, reduction of LPA 18:2 level in rat plasma (LC-MS/MS); assay type: biochemical; conditions: 2 hr at 37° C., LPA 18:2 reduction
Procedure: (§1) Autotaxin (ATX) plays an important role in lysophosphatidic acid (LPA) signaling. An in vitro LPA assay was conducted to determine IC50 values of the test compounds on reduction of LPA 18:2 level in rat or mouse plasma. This example describes the assay data (IC50 value ranges) of exemplary compounds from LPA assays using mouse and rat plasma. Compound GPLG-1690 was assayed as a reference compound.
(§2) The 10 mM DMSO stock solutions of test compounds and 4-fold serial dilutions of the test compounds were prepared at various concentrations. The diluted solutions of the compounds were diluted with 1×PBS (pH 7.5) buffer. 38 μL of rat or mouse plasma samples were mixed with 2 μL of the diluted solutions of the compounds or 2% DMSO solutions in 96-well plate (final 0.1% DMSO). After incubating for 2 hr at 37° C., 120 μL MeOH containing IS (250 ng/mL of LPA 17:0) was added to each well. Mixture was vortexed for 1 min, and then centrifuged for 30 min (4000 rpm, 4° C.). 100 μL supernatant was transferred to a 96-well plate containing 100 μL pure water and the plate was shaken for 10 min. 5 μL supernatant was injected into LC-MS/MS system. No calibration curve will be prepared for LPA 18:2 and all quantifications were performed based on peak area ratios (LPA 18:2/LPA 17:0). For each concentration of compound LPA data were expressed as percentage of reduction (% reduction) using the formula. 100−[((LPA ratio-LPA ratio in control sample after 0 hr incubation)/(LPA ratio in control sample after 2 hr incubation—LPA ratio in control sample after 0 hr incubation))*100]. Data

[2] = target: hATX/ENPP2 (Homo sapiens, UniProt Q13822); test: hATX/ENPP2 biochemical assay using 16:0-LPC as substrate (Amplex Red/choline oxidase/HRP fluorescence); conditions: hENPP2 2.5 nM, LPC (16:0) substrate
Outline: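 Enzyme preincubated with compounds 15 min at room temperature in 50 mM Tris-HCl pH 8.0, 140 mM NaCl, 5 mM CaCl2, 0.01% Triton X-100. Reaction started with 80 μM LPC (16:0) stock plus Amplex Red/choline oxidase/HRP mix; fluorescence (ex 530/em 590 nm) read kinetically. IC50 from slope between 60 and 70 min.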

[3] = test system: LPA 18:2 level in mouse plasma; test: In vitro LPA assay, reduction of LPA 18:2 level in mouse plasma (LC-MS/MS); assay type: biochemical; conditions: 2 hr at 37° C., LPA 18:2 reduction
Procedure: as §1, §2

[4] = Mouse PK study (IV and PO); assay type: in vivo; conditions: male, C57BL/6, mouse, plasma, male C57BL/6 mice; for AUC(0-inf): IV 2 mg/kg and PO 10 mg/kg study; for bioavailability / Cmax: po, 10 mg/kg; for bioavailability: IV 2 mg/kg and PO 10 mg/kg, read-out: F % (bioavailability); for Cmax: PO group 10 mg/kg
Procedure: This example describes the pharmacokinetic (PK) data obtained for various compounds of the present disclosure, from studies using mice. The following PK parameters were calculated: • Bioavailability (F %) were calculated using the linear/log trapezoidal rule • Peak plasma concentrations (Cmax (ng/mL)) were taken directly from the plasma concentration vs. time profiles for the PO group • Area under the curve e.g., the area under the concentration curve from time 0 to infinity (AUC0-inf(ng*h/mL)). Experimental Procedures
After intravenous (IV) and oral (PO) administration at 2 mg/kg and 10 mg/kg to male C57BL/6 mice, respectively, the blood samples were collected at the designed sampling time points. All blood samples were transferred into pre-chilled commercial polyethylene microcentrifuge tubes containing K2-EDTA as an anticoagulant. Samples were processed for plasma by centrifugation. Plasma samples was transferred into polypropylene tubes pre-chilled on dry ice and then quickly frozen over dry ice and kept at −70±10° C. until LC-MS/MS analysis. Mice plasma samples were analyzed using qualified bioanalytical methods based on protein precipitation followed by LC-MS/MS analysis. Individual plasma concentration data of each compound was subjected to noncompartmental pharmacokinetic analysis using Phoenix WinNonlin™. Nominal doses were used for pharmacokinetic parameters calculation.

| SMILES | IC50 [1] [nM] | IC50 [2] [nM] | IC50 [3] [nM] | AUC(0-inf) [4] [ng·h/mL] | bioavailability [4] [%] | Cmax [4] [ng/mL] |
| --- | --- | --- | --- | --- | --- | --- |
| CCc1nc2ccc(-c3cnc(N4CCN(C(=O)N5CC[C@H](O)C5)CC4)nc3)cn2c1N(C)c1nc(-c2ccc(F)cc2)c(C#N)s1 [Compound 44, (S)-2-((2-ethyl-6-(2-(4-(3-hydroxypyrrolidine-1-carbonyl)piperazin-1-yl)pyrimidin-5-yl)imidazo[1,2-a]pyridin-3-yl)(methyl)amino)-4-(4-fluorophenvl)thiazole-5-carbonitrile] | 200 to 800 | ≤ 20 | 200 to 800 | 25000 | 33.4 | 4730 |
| CCc1nc2ccc(-c3ccc(N4CCC(C(=O)N5CCCC5)CC4)nc3)cn2c1N(C)c1nc(-c2ccc(F)cc2)c(C#N)s1 [Compound 113, 2-((2-ethyl-6-(6-(4-(pyrrolidine-1-carbonyl)piperidin-1-yl)pyridin-3-yl)imidazo[1,2-a]pyridin-3-yl)(methyl)amino)-4-(4-fluorophenyl)thiazole-5-carbonitrile] | ≤ 200 | ≤ 20 | > 800 | 40500 | 44.7 | 6530 |
| CCc1nc2ccc(-c3cnc(N4CCC(C(=O)N5CCCC5)CC4)nc3)cn2c1N(C)c1nc(-c2ccc(F)cc2)c(C#N)s1 [Compound 115, 2-((2-ethyl-6-(2-(4-(pyrrolidine-1-carbonyl)piperidin-1-yl)pyrimidin-5-yl)imidazo [1,2-a]pyridin-3-yl)(methyl)amino)-4-(4-fluorophenyl)thiazole-5-carbonitrile] | ≤ 200 | ≤ 20 | 200 to 800 | 37100 | 48.5 | – |
| CCc1nc2ccc(-c3ccc(N4CCC(C(=O)N5CCC(O)CC5)CC4)nc3)cn2c1N(C)c1nc(-c2ccc(F)cc2)c(C#N)s1 [Compound 119, 2-((2-ethyl-6-(6-(4-(4-hydroxypiperidine-1-carbonyl)piperidin-1-yl)pyridin-3-yl)imidazo[1,2-a]pyridin-3-yl)(methyl)amino)-4-(4-fluorophenyl)thiazole-5-carbonitrile] | 200 to 800 | ≤ 20 | 200 to 800 | 57100 | 33.1 | 7680 |
| CCc1nc2ccc(-c3cnc(N4CCC(C(=O)N5CCC5)CC4)nc3)cn2c1N(C)c1nc(-c2ccc(F)cc2)c(C#N)s1 [Compound 123, 2-((6-(2-(4-(azetidine-1-carbonyl)piperidin-1-yl)pyrimidin-5-yl)-2-ethylimidazo[1,2-a]pyridin-3-yl)(methyl)amino)-4-(4-fluorophenyl)thiazole-5-carbonitrile] | 200 to 800 | ≤ 20 | 200 to 800 | 61000 | 55.7 | 7750 |
| CCc1nc2ccc(-c3ccc(N4CC(C(=O)N5CCC5)C4)nc3)cn2c1N(C)c1nc(-c2ccc(F)cc2)c(C#N)s1 [Compound 124, 2-((6-(6-(3-(azetidine-1-carbonyl)azetidin-1-yl)pyridin-3-yl)-2-ethylimidazo[1,2-a]pyridin-3-yl)(methyl)amino)-4-(4-fluorophenyl)thiazole-5-carbonitrile] | 200 to 800 | 20 to 200 | 200 to 800 | 13100 | 40 | 3820 |

Further lines, results first:

| IC50 [1] [nM] | IC50 [2] [nM] | IC50 [3] [nM] | AUC(0-inf) [4] [ng·h/mL] | bioavailability [4] [%] | Cmax [4] [ng/mL] | SMILES |
| --- | --- | --- | --- | --- | --- | --- |
| ≤ 200 | ≤ 20 | ≤ 200 | 31000 | 39.5 | 5170 | CCc1nc2ccc(-c3cnc(N4CCN(C(=O)N5CC[C@@H](O)C5)CC4)nc3)cn2c1N(C)c1nc(-c2ccc(F)cc2)c(C#N)s1 [Compound 43, (R)-2-((2-ethyl-6-(2-(4-(3-hydroxypyrrolidine-1-carbonyl)piperazin-1-yl)pyrimidin-5-yl)imidazo[1,2-a]pyridin-3-yl)(methyl)amino)-4-(4-fluorophenyl)thiazole-5-carbonitrile] |
| 200 to 800 | ≤ 20 | ≤ 200 | 22800 | 25 | 4260 | CCc1nc2ccc(-c3ccc(N4CCN(C(=O)N5CC[C@@H](O)C5)CC4)nc3)cn2c1N(C)c1nc(-c2ccc(F)cc2)c(C#N)s1 [Compound 92, (R)-2-((2-ethyl-6-(6-(4-(3-hydroxypyrrolidine-1-carbonyl)piperazin-1-yl)pyridin-3-yl)imidazo[1,2-a]pyridin-3-yl)(methyl)amino)-4-(4-fluorophenyl)thiazole-5-carbonitrile] |
| 200 to 800 | ≤ 20 | 200 to 800 | 38000 | 28.4 | 7040 | CCc1nc2ccc(-c3ccc(N4CCC(C(=O)N5CC[C@@H](O)C5)CC4)nc3)cn2c1N(C)c1nc(-c2ccc(F)cc2)c(C#N)s1 [Compound 114, (R)-2-((2-ethyl-6-(6-(4-(3-hydroxypyrrolidine-1-carbonyl)piperidin-1-yl)pyridin-3-yl)imidazo[1,2-a]pyridin-3-yl)(methyl)amino)-4-(4-fluorophenyl)thiazole-5-carbonitrile] |
| 200 to 800 | ≤ 20 | 200 to 800 | 50500 | 40.8 | 8470 | CCc1nc2ccc(-c3ccc(N4CCC(C(=O)N5CC(O)C5)CC4)nc3)cn2c1N(C)c1nc(-c2ccc(F)cc2)c(C#N)s1 [Compound 120, 2-((2-ethyl-6-(6-(4-(3-hydroxyazetidine-1-carbonyl)piperidin-1-yl)pyridin-3-yl)imidazo[1,2-a]pyridin-3-yl)(methyl)amino)-4-(4-fluorophenyl) thiazole-5-carbonitrile] |
| ≤ 200 | ≤ 20 | 200 to 800 | 38300 | 59.2 | 5580 | CCc1nc2ccc(-c3ccc(N4CCC(C(=O)N5CCOCC5)CC4)nc3)cn2c1N(C)c1nc(-c2ccc(F)cc2)c(C#N)s1 [Compound 126, 2-((2-ethyl-6-(6-(4-(morpholine-4-carbonyl)piperidin-1-yl)pyridin-3-yl)imidazo[1,2-a]pyridin-3-yl)(methyl)amino)-4-(4-fluorophenyl)thiazole-5-carbonitrile] |
